# pIC50: −log10 of the molar value.
# Tested on: 997726-040-R-J2-PDC tumor spheroids, viability
# Assay: Anticancer human tumor 997726-040-R-J2-PDC patient-derived squamous cell lung carcinoma cell line growth inhibition [PI3K]
# Conditions: spheroids with HUVEC and MSC; for pIC50: curve of first compound; for viability, T/C: stronger effect = lower value
# Procedure, shortened: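 High-throughput combination screen: PI3K inhibitors crossed with targeted small molecules on complex spheroids of tumor cells, HUVEC and MSCs at 37 degrees C, 5% CO2. Top concentration was at or near clinical Cmax (otherwise 10 microM), with half-log decrements.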
# [1] = second compound 0.00316 µM, first compound 0.0316 µM
# [2] = second compound 0.00316 µM, first compound 0.1 µM
# [3] = second compound 0.01 µM, first compound 0.0316 µM
# [4] = second compound 0.01 µM, first compound 0.1 µM
# [5] = second compound 0.0316 µM, first compound 0.0316 µM
# [6] = second compound 0.0316 µM, first compound 0.1 µM
# [7] = second compound 0.1 µM, first compound 0.0316 µM
# [8] = second compound 0.1 µM, first compound 0.1 µM
# [9] = second compound 0.316 µM, first compound 0.0316 µM
# [10] = second compound 0.316 µM, first compound 0.1 µM
# [11] = second compound 1 µM, first compound 0.0316 µM
# [12] = second compound 1 µM, first compound 0.1 µM
# 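Further: spheroids exposed to compounds for seven days before readout.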
smiles,measurement,setting,value
CC(C)n1nc(-c2ccc3oc(N)nc3c2)c2c(N)ncnc21 + CC(Nc1ccc2c(c1)OCCn1cc(N3C(=O)OCC3C(F)F)nc1-2)C(N)=O,pIC50,second compound 0.00316 µM,7.76
same,pIC50,second compound 0.01 µM,7.78
same,pIC50,second compound 0.0316 µM,8.49
same,pIC50,second compound 0.1 µM,> 9.50
same,pIC50,second compound 0.316 µM,> 9.50
same,pIC50,second compound 1 µM,> 9.50
same,"viability, T/C","second compound 0.00316 µM, first compound 0.000316 µM",79%
same,"viability, T/C","second compound 0.00316 µM, first compound 0.001 µM",88.2%
same,"viability, T/C","second compound 0.00316 µM, first compound 0.00316 µM",73.5%
same,"viability, T/C","second compound 0.00316 µM, first compound 0.01 µM",59.8%
same,"viability, T/C",[1],38.9%
same,"viability, T/C",[2],7.14%
same,"viability, T/C","second compound 0.01 µM, first compound 0.000316 µM",74.8%
same,"viability, T/C","second compound 0.01 µM, first compound 0.001 µM",68.5%
same,"viability, T/C","second compound 0.01 µM, first compound 0.00316 µM",71.3%
same,"viability, T/C","second compound 0.01 µM, first compound 0.01 µM",59.1%
same,"viability, T/C",[3],37.4%
same,"viability, T/C",[4],6.85%
same,"viability, T/C","second compound 0.0316 µM, first compound 0.000316 µM",54.6%
same,"viability, T/C","second compound 0.0316 µM, first compound 0.001 µM",61.3%
same,"viability, T/C","second compound 0.0316 µM, first compound 0.00316 µM",48.7%
same,"viability, T/C","second compound 0.0316 µM, first compound 0.01 µM",38.6%
same,"viability, T/C",[5],26.6%
same,"viability, T/C",[6],6.47%
same,"viability, T/C","second compound 0.1 µM, first compound 0.000316 µM",44.2%
same,"viability, T/C","second compound 0.1 µM, first compound 0.001 µM",39.5%
same,"viability, T/C","second compound 0.1 µM, first compound 0.00316 µM",42.5%
same,"viability, T/C","second compound 0.1 µM, first compound 0.01 µM",33%
same,"viability, T/C",[7],20.9%
same,"viability, T/C",[8],4.52%
same,"viability, T/C","second compound 0.316 µM, first compound 0.000316 µM",32.5%
same,"viability, T/C","second compound 0.316 µM, first compound 0.001 µM",33.9%
same,"viability, T/C","second compound 0.316 µM, first compound 0.00316 µM",27.9%
same,"viability, T/C","second compound 0.316 µM, first compound 0.01 µM",24.9%
same,"viability, T/C",[9],13.5%
same,"viability, T/C",[10],3.29%
same,"viability, T/C","second compound 1 µM, first compound 0.000316 µM",29.1%
same,"viability, T/C","second compound 1 µM, first compound 0.001 µM",26.9%
same,"viability, T/C","second compound 1 µM, first compound 0.00316 µM",21.4%
same,"viability, T/C","second compound 1 µM, first compound 0.01 µM",20.6%
same,"viability, T/C",[11],9.52%
same,"viability, T/C",[12],2.78%
CC1(C)CCC(CN2CCN(c3ccc(C(=O)NS(=O)(=O)c4ccc(NCC5CCOCC5)c([N+](=O)[O-])c4)c(Oc4cnc5[nH]ccc5c4)c3)CC2)=C(c2ccc(Cl)cc2)C1 + CC(Nc1ccc2c(c1)OCCn1cc(N3C(=O)OCC3C(F)F)nc1-2)C(N)=O,pIC50,second compound 0.00316 µM,5.04
same,pIC50,second compound 0.01 µM,5.03
same,pIC50,second compound 0.0316 µM,5.23
same,pIC50,second compound 0.1 µM,> 7.50
same,pIC50,second compound 0.316 µM,> 7.50
same,pIC50,second compound 1 µM,> 7.50
same,"viability, T/C",[1],74.8%
same,"viability, T/C",[2],82.8%
same,"viability, T/C","second compound 0.00316 µM, first compound 0.316 µM",92.2%
same,"viability, T/C","second compound 0.00316 µM, first compound 1 µM",83.6%
same,"viability, T/C","second compound 0.00316 µM, first compound 3.16 µM",73.1%
same,"viability, T/C","second compound 0.00316 µM, first compound 10 µM",48.1%
same,"viability, T/C",[3],64.9%
same,"viability, T/C",[4],86.6%
same,"viability, T/C","second compound 0.01 µM, first compound 0.316 µM",74.2%
same,"viability, T/C","second compound 0.01 µM, first compound 1 µM",81.6%
same,"viability, T/C","second compound 0.01 µM, first compound 3.16 µM",70%
same,"viability, T/C","second compound 0.01 µM, first compound 10 µM",48.1%
same,"viability, T/C",[5],60.8%
same,"viability, T/C",[6],63.8%
same,"viability, T/C","second compound 0.0316 µM, first compound 0.316 µM",70.7%
same,"viability, T/C","second compound 0.0316 µM, first compound 1 µM",55%
same,"viability, T/C","second compound 0.0316 µM, first compound 3.16 µM",62.9%
same,"viability, T/C","second compound 0.0316 µM, first compound 10 µM",39.5%
same,"viability, T/C",[7],42.5%
same,"viability, T/C",[8],42.1%
same,"viability, T/C","second compound 0.1 µM, first compound 0.316 µM",43.5%
same,"viability, T/C","second compound 0.1 µM, first compound 1 µM",37.2%
same,"viability, T/C","second compound 0.1 µM, first compound 3.16 µM",39.8%
same,"viability, T/C","second compound 0.1 µM, first compound 10 µM",28.3%
same,"viability, T/C",[9],30.7%
same,"viability, T/C",[10],33.3%
same,"viability, T/C","second compound 0.316 µM, first compound 0.316 µM",32.9%
same,"viability, T/C","second compound 0.316 µM, first compound 1 µM",29.9%
same,"viability, T/C","second compound 0.316 µM, first compound 3.16 µM",24.1%
same,"viability, T/C","second compound 0.316 µM, first compound 10 µM",15.9%
same,"viability, T/C",[11],27.9%
same,"viability, T/C",[12],21.5%
same,"viability, T/C","second compound 1 µM, first compound 0.316 µM",24.5%
same,"viability, T/C","second compound 1 µM, first compound 1 µM",27.7%
same,"viability, T/C","second compound 1 µM, first compound 3.16 µM",24.8%
same,"viability, T/C","second compound 1 µM, first compound 10 µM",12.3%
